The source of these data is US20160067347A1, “APJ RECEPTOR AGONISTS AND USES THEREOF” (AMGEN INC., priority 2012, published 2016).

A word on the EC50: it is the concentration at which the effect is half-maximal.

*1 amine or outer side, *2 acyl side, *3 side chain or, on linkers, in order; H or OH if unused. Primed or numbered codes have the meaning given here. Where no end group is shown, it is not given here. [ ]: non-standard residue; d: D form. Atz = (S)-2-amino-3-(1H-1,2,3-triazol-4-yl)propanoyl residue, substituent (PEG) on triazole N1, O=C([C@H](Cc1cn([*:3])nn1)N[*:1])[*:2]; Oic = O=C(O)[C@@H]1C[C@@H]2CCCC[C@@H]2N1; Phe(4-Cl) = N[C@@H](Cc1ccc(Cl)cc1)C(=O)O; hArg = N=C(N)NCCCC[C@H](N)C(=O)O; Cha = N[C@@H](CC1CCCCC1)C(=O)O; 20K‑mPEG = 20 kDa methoxy-PEG; 40K‑mPEG = 40 kDa methoxy-PEG; pGlu = O=C1CC[C@@H](C(=O)O)N1; PEG10′ = not defined here; Nle = CCCC[C@H](N)C(=O)O; Mpa = O=C(O)CCS

Assay [1] deals with T1, APJ receptor (Rattus norvegicus, UniProt Q9JHG3).
T1 construct: expressed in transfected cells; CHO is named only for the cAMP assay
T1 sequence (Q9JHG3 whole entry, looked up): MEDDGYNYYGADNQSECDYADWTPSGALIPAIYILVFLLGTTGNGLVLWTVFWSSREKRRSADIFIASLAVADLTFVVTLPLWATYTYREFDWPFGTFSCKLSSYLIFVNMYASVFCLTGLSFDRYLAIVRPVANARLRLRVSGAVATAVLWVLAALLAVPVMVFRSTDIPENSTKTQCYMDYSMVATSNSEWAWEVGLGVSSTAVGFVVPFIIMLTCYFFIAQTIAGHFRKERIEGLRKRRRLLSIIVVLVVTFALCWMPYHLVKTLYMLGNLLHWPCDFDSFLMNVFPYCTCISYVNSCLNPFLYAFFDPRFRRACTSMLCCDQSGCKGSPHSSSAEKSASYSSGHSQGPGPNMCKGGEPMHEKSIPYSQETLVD
Nature of the assay: EC50. The text has this: Table printed on a drawing sheet, FIGURE 11
The patent's description of the figure: FIG. 11. Effects of peptide valency on in vitro activity.
First copying reader's note: The sheet prints no unit for the EC50 column; the plot under the table ([35S]GTPγS binding, rAPJ stable cell line) is not copied.

For assay [2], the system named is healthy rats and rats having MI-induced heart failure. Briefly: In vivo cardiac hemodynamics (Millar PV loop, femoral arterial pressure) in healthy and MI-induced heart failure rats. Also noted: species or system rat. As to conditions: for mean dp/dt max increase: intravenous infusion, FIG. 9. The method, then: The cardiac function of healthy rats and the rats having MI (myocardial infarction)-induced heart failure was measured via the Millar PV loop system and femoral arterial pressure catheter were examined.
Male Lewis rats at 2-3 months of age were used for the studies. MI was induced by ligation of the left anterior descending coronary artery (LAD). Echocardiography was performed at 1 week post-MI for animal enrollment. If ejection fraction (EF) was more than 40% and no infarct was identified from echocardiography images, these animals were excluded from the study. The Millar PV loop catheter was inserted into the right common carotid artery and then advanced to the left ventricle (LV) for cardiovascular hemodynamic assessment. The arterial pressure catheter was inserted into a femoral artery for peripheral blood pressure monitoring.
Experiments were performed either on six-seven weeks post-MI rat, or healthy rats. […] Test articles were given intravenously via jugular vein, and 3 sets of peptide doses were used in the experiment. […] At the end of the experiment, the infarct size was verified by gross morphology if MI rats were used in the study.
Animals in MI groups had very similar infarct size (38-39% of LV) among the groups (results not shown).

For assay [3], the system named is isolated Langendorff rat heart. Briefly: Langendorff isolated rat heart, hemodynamic cardiac function. The settings on record: control rats, FIGS. 7 and 8. The text has this:
To assess the hemodynamic cardiac function of the peptides a Langendorff isolated heart system was used. The isolated heart from rat provides broad spectrum of measurements that can include biochemical, metabolic, morphological and physiological indices. The limitations/advantages of the method include absence of neurohormonal influences, neural regulation and high coronary flows. Such limitations, however, are offset by the ability to study direct cardiac effects without systemic circulation and a host of peripheral interactions.
The reproducibility and accuracy of measurements and relatively low costs over in vivo studies for profiling drugs outweigh any limitations of this method. Therefore, this method provides excellent dose-response relationship and sheds critical insight into the pharmacological and physiological properties of the molecules of interest.
The animals were anesthetized upon administration of 50-100 mg/kg dose of sodium pentobarbital for rat via the intraperitoneal route. The heart was excised and gently cradled between fingers to avoid injury followed by lifting slightly before incising the aorta, vena cava and pulmonary vessels Immediately after excision of the heart with aorta, the heart was mounted onto the cannula in the Langendorff apparatus via the aorta. The heart was perfused with modified oxygenated Krebs-Henseleit buffer pH7.5 and equilibrated with 95% O2/5% CO2 at 37° C. The perfusion was performed at a constant flow of 10 ml/min and paced at 300 bpm. The pressure was measured through a pressure sensing balloon catheter inserted in the LV cavity. The intrinsic inotropy (force of muscle contraction) and lusitropy (cardiac relaxation) effects of the heart were assessed by dp/dtmax and dp/dtmin.
These figures illustrate improvement in both systolic and diastolic function of normal hearts with peptides of SEQ ID NOs: 23 and 24.

Assay [4] concerns the target APJ receptor. Briefly: EC50 IP (µM). An excerpt: Table printed on a drawing sheet, FIGURE 3B
Head of the field: EC50 IP (µM)
Section band inside the table: Peptides with 525 Da PEG modification
The patent's description of the figure: FIGS. 3A-C.
First copying reader's note: Row 2 is a section heading spanning all columns; blanks inside names and sequences only mark line breaks within the printed cell.
Where the first naming reader finds the target: passage: An “APJ agonist” should be understood to refer to a molecule that is able to activate the APJ receptor.

Assay [5] has as its target T2, human APJ (Homo sapiens, UniProt P35414).
T2 construct: expressed in transfected cells
T2 sequence (P35414 1-380): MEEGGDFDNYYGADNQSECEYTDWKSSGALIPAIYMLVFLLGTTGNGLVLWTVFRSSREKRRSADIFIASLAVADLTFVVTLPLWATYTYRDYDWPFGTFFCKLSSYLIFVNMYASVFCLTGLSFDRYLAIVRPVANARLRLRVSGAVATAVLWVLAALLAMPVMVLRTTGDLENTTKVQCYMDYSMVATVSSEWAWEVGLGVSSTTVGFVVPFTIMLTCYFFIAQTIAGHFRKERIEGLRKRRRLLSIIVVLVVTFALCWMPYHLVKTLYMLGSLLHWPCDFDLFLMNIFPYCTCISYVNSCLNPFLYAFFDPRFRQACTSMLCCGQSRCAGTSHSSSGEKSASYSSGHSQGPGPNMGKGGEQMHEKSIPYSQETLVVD
Briefly: cAMP assay, stable CHO cell line expressing human APJ. The class given is cell-based. As to conditions: FIG. 5; cAMP seen with either human or rat APJ stable cell lines. Here is the method:
Stable CHO cell lines expressing APJ were used for cAMP assays. The cells were incubated with stimulation buffer containing HANK's buffer, forskolin and 0.5 mM IBMX in the absence or presence of various concentrations' of peptides at 37° C. for 45 min. The cAMP level was determined using a cyclic AMP kit (DiscoverX) according to the manufacturer's instructions.
A general note: Changes in cAMP serve as a functional read-out for many G protein-coupled receptors.

Assay [6] concerns the target T3, rat APJ receptor (rat, UniProt Q9JHG3 1-377).
T3 sequence (looked up): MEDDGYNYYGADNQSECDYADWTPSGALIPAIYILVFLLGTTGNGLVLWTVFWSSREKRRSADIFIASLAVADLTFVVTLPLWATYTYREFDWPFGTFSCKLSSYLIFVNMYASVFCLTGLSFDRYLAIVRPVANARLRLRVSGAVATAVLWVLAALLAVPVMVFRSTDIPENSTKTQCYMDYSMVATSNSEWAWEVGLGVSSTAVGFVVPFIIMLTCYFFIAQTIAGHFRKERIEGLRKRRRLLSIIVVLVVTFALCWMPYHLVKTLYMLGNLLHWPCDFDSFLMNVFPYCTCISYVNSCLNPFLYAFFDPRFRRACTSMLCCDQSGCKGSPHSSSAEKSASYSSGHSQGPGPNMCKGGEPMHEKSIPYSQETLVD
Nature of the assay: cell-based or functional assay.

The mark [7] stands for this setting: dose ranges from 5.5 to 88 μg/kg.

For the molecule “SEQ ID NO: 130: 20 kDa PEG-bis(Atz-KFRRQRP[hArg][Cha]SHKG[Oic][Nle]P[4-Cl—F]) (KFRRQRP[hArg][Cha]SHKG[Oic][Nle]P[Phe(4-Cl)]; not fully specified (N-terminus); also: 20 kDa PEG carries two peptide copies)”, the EC50 in assay [1] turned out to be 0.407 nM.
As for “SEQ ID NO: 131: 20 kDa PEG-tetrakis(Atz-KFRRQRP[hArg][Cha]SHKG[Oic][Nle]P[4-Cl—F]) (KFRRQRP[hArg][Cha]SHKG[Oic][Nle]P[Phe(4-Cl)]; not fully specified (N-terminus); also: 20 kDa PEG carries four peptide copies)”, the EC50 in assay [1] turned out to be 0.794 nM.
As for “[PE65;hArg68;Cha69;3-(1-(2-aminoethoxy(PEG9)ethyl)-1H-1,2,3-triazol-4-yl)Ala70;Oic74;Nle75;4-Cl-F77]Apelin-13(65-77) ([pGlu]RP[hArg][Cha][Atz](PEG10′)HKG[Oic][Nle]P[Phe(4-Cl)]) [SEQ ID NO: 23]”, in assay [2] (MI rats, intravenous infusion of 88 μg/kg accumulative dose), the “Heart rate (HR) increase” value is recorded as “up to 10.6%”. Moreover, in assay [2] (MI rats), the “mean dp/dt max increase” value was 24.5%. In assay [2] (setting [7]), the “other cardiac hemodynamic changes” value is on record as “No other cardiac hemodynamic changes were observed” and the “peripheral vascular resistant measurement such as mean arterial pressure” value is recorded as “No significant changes”. Besides, the “mean dp/dt max increase” value in assay [2] (healthy rats) stood at 32%. Moreover, in assay [3], the dp/dtmax entry is “dose dependent increase”, the dp/dtmin entry was “decrease” and the systolic pressure entry was “increases”.
“{Hydrogen}[PE]RP[hArg][Cha][Pra(NPeg9) ]HKG[Oic][Nle][4-Cl-F]{FreeAcid}” came in with an EC50 in assay [4] of 133 nM.
Regarding “{Thiopropionyl(20K-mPEG)}LLRP[hArg][Cha]SHKG[Oic][Nle]P[4-Cl—F]{FreeAcid} ({mPEG 20 kDa}-[Mpa]LLRP[hArg][Cha]SHKG[Oic][Nle]P[Phe(4-Cl)]-OH) [SEQ ID NO: 124]”, the “agonist activity relative to pyr apelin-13 (SEQ ID NO: 128)” value in assay [5] was “potent and act as a full agonist”.
As for {20K‑mPEG-Thiopropionyl}-KFRRQRP[hArg][Cha]SHKG[Oic][Nle]P[Phe(4-Cl)] [Thiopropionyl(20K-mPEG)-KFRRQRP[hArg][Cha]SHKG[Oic][Nle]P[4-Cl-F]], the “EC50 (GTPγS assay)” value in assay [6] was 0.252 nM.
{40K‑mPEG-Thiopropionyl}-KFRRQRP[hArg][Cha]SHKG[Oic][Nle]P[Phe(4-Cl)]-OH [{Thiopropionyl(40K-mPEG)}KFRRQRP[hArg][Cha]SHKG[Oic][Nle]P[4-Cl-F]{FreeAcid}]: in assay [6], the “EC50 (GTPγS assay)” value was determined as 1.37 nM and the “potency (GTPγS assay), fold reduction relative to 20 kDA (SEQ ID NO: 24)” value was determined as 5 fold.
